{"source": "patent US20020137929A1", "about": "“1 - (3-heterocyclylphenyl) isothiourea, -isourea, -guanidine and -amidine herbicidal agents” (Intellectual Property Department, BASF Aktiengesellschaft, priority 1998, published 2002)", "key": {"ABUTH (Velvetleaf)": {"tested_on": "ABUTH (Velvetleaf)", "experiment": "Postemergence herbicidal evaluation", "format": "in vivo, Abutilon theophrasti", "conditions": "postemergence", "how_it_was_run": "(§1)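 Scores (0–9) reflect plant stand, vigor, malformation, size, chlorosis and general appearance relative to control, read 4 to 5 weeks after treatment and averaged where tests were repeated. Application: about 0.0156–0.500 kg/ha sprayed at 40 psi onto two-week seedlings.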"}, "AMBEL (Ragweed, Common)": {"tested_on": "AMBEL (Ragweed, Common)", "experiment": "Postemergence herbicidal evaluation", "format": "in vivo, Ambrosia artemisifolia", "conditions": "postemergence", "how_it_was_run": "as §1"}, "[1]": {"tested_on": "IPOHE (Morningglory, Ivyleaf)", "experiment": "Postemergence herbicidal evaluation", "format": "in vivo, Ipomoea hederacea", "conditions": "postemergence", "how_it_was_run": "as §1"}, "ECHCG (Barnyardgrass) [2]": {"tested_on": "ECHCG (Barnyardgrass)", "experiment": "Postemergence herbicidal evaluation", "format": "in vivo, Echinochloa crus-galli", "conditions": "postemergence", "how_it_was_run": "as §1"}, "SETVI (Foxtail, Green)": {"tested_on": "SETVI (Foxtail, Green)", "experiment": "Postemergence herbicidal evaluation", "format": "in vivo, Setaria viridis", "conditions": "postemergence", "how_it_was_run": "as §1"}, "[3]": {"tested_on": "GLXMAW (Soybean, Williams)", "experiment": "Postemergence herbicidal evaluation", "format": "in vivo, Glycine max, (L.) Merr. cv Williams", "conditions": "postemergence", "how_it_was_run": "as §1"}, "[4]": {"tested_on": "TRZAWR (Wheat, Winter, cv Riband)", "experiment": "Postemergence herbicidal evaluation", "format": "in vivo, Triticum aestivum", "conditions": "postemergence", "how_it_was_run": "as §1"}, "CASOB (Sicklepod)": {"tested_on": "CASOB (Sicklepod)", "experiment": "Preemergence herbicidal evaluation", "format": "in vivo, Cassia obtusifolia", "conditions": "rated 4-5 weeks after treatment; for CASOB rating: preemergence, 0-9 scale", "from_the_text": "(§2) Results of herbicide evaluation are expressed on a rating scale (0-9). The scale is based upon a visual observation of plant stand, vigor, malformation, size, chlorosis and overall plant appearance as compared with a control.\n(§3) The preemergence herbicidal activity of the test compounds of the present invention is exemplified by the following tests in which the seeds of a variety of monocotyledonous and dicotyledonous plants are separately mixed with potting soil and planted on top of approximately one inch of soil in separate pint cups. After planting, the cups are sprayed with the selected aqueous acetone solution containing test compound in sufficient quantity to provide the equivalent of about 0.0156 to 0.500 kg per hectare of test compound per cup. The treated cups are then placed on greenhouse benches, watered and cared for in accordance with conventional greenhouse procedures. From four to five weeks after treatment, the tests are terminated and each cup is examined and rated according to the rating system provided in Example 37.\n(§4) The compounds evaluated are reported by compound number given in Example 37."}, "[5]": {"tested_on": "CHEAL (Lambsquarters, Common)", "experiment": "Preemergence herbicidal evaluation", "format": "in vivo, Chenopodium album", "conditions": "rated 4-5 weeks after treatment; for CHEAL rating: preemergence, 0-9 scale", "from_the_text": "as §2, §3, §4"}, "GALAP (Galium)": {"tested_on": "GALAP (Galium)", "experiment": "Preemergence herbicidal evaluation", "format": "in vivo, Galium aparine", "conditions": "rated 4-5 weeks after treatment; for GALAP rating: preemergence, 0-9 scale", "how_it_was_run": "(§5)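 Rating at 4–5 wk post-spray on a 0–9 visual scale vs control. Application: aqueous acetone, ~0.0156–0.500 kg/ha, to soil surface after seeding, preemergence.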"}, "[6]": {"tested_on": "IPOHE (Morningglory, Ivyleaf)", "experiment": "Preemergence herbicidal evaluation", "format": "in vivo, Ipomoea hederacea", "conditions": "rated 4-5 weeks after treatment; for IPOHE rating: preemergence, 0-9 scale", "how_it_was_run": "as §5"}, "ECHCG (Barnyardgrass) [7]": {"tested_on": "ECHCG (Barnyardgrass)", "experiment": "Preemergence herbicidal evaluation", "format": "in vivo, Echinochloa crus-galli", "conditions": "rated 4-5 weeks after treatment; for ECHCG rating: preemergence, 0-9 scale", "from_the_text": "as §2, §3, §4"}, "ZEAMX (Corn, Field)": {"tested_on": "ZEAMX (Corn, Field)", "experiment": "Preemergence herbicidal evaluation", "format": "in vivo, Zea mays", "conditions": "rated 4-5 weeks after treatment; for ZEAMX rating: preemergence, 0-9 scale", "from_the_text": "as §2, §3, §4"}}, "data": [{"smiles": "C=CCOC(=O)CN1C(=O)CSC1=Nc1cc(-n2c(=O)cc(C(F)(F)F)n(C)c2=O)c(F)cc1Cl", "note": "[Compound 106, Allyl 2-{{2-chloro-5-[3,6-dihydro-3-methyl-2,6-dioxo-4-(trifluoromethyl)-1(2H)-pyrimidinyl]-4-fluorophenyl}imino}-4-oxo-3-thiazolidineacetate]", "values": [{"measurement": "herbicidal rating ABUTH", "setting": "ABUTH (Velvetleaf); rate 0.0158 kg/ha", "result": 9.0}, {"measurement": "herbicidal rating ABUTH", "setting": "ABUTH (Velvetleaf); rate 0.0315 kg/ha", "result": 9.0}, {"measurement": "herbicidal rating ABUTH", "setting": "ABUTH (Velvetleaf); rate 0.0630 kg/ha", "result": 9.0}, {"measurement": "herbicidal rating AMBEL", "setting": "AMBEL (Ragweed, Common); rate 0.0158 kg/ha", "result": 7.0}, {"measurement": "herbicidal rating AMBEL", "setting": "AMBEL (Ragweed, Common); rate 0.0315 kg/ha", "result": 7.0}, {"measurement": "herbicidal rating AMBEL", "setting": "AMBEL (Ragweed, Common); rate 0.0630 kg/ha", "result": 9.0}, {"measurement": "herbicidal rating IPOHE", "setting": "[1]; rate 0.0158 kg/ha", "result": 9.0}, {"measurement": "herbicidal rating IPOHE", "setting": "[1]; rate 0.0315 kg/ha", "result": 9.0}, {"measurement": "herbicidal rating IPOHE", "setting": "[1]; rate 0.0630 kg/ha", "result": 9.0}, {"measurement": "herbicidal rating ECHCG", "setting": "ECHCG (Barnyardgrass) [2]; rate 0.0158 kg/ha", "result": 2.0}, {"measurement": "herbicidal rating ECHCG", "setting": "ECHCG (Barnyardgrass) [2]; rate 0.0315 kg/ha", "result": 2.0}, {"measurement": "herbicidal rating ECHCG", "setting": "ECHCG (Barnyardgrass) [2]; rate 0.0630 kg/ha", "result": 7.0}, {"measurement": "herbicidal rating SETVI", "setting": "SETVI (Foxtail, Green); rate 0.0158 kg/ha", "result": 4.0}, {"measurement": "herbicidal rating SETVI", "setting": "SETVI (Foxtail, Green); rate 0.0315 kg/ha", "result": 3.0}, {"measurement": "herbicidal rating SETVI", "setting": "SETVI (Foxtail, Green); rate 0.0630 kg/ha", "result": 9.0}, {"measurement": "herbicidal rating GLXMAW", "setting": "[3]; rate 0.0158 kg/ha", "result": 4.5}, {"measurement": "herbicidal rating GLXMAW", "setting": "[3]; rate 0.0315 kg/ha", "result": 5.5}, {"measurement": "herbicidal rating GLXMAW", "setting": "[3]; rate 0.0630 kg/ha", "result": 6.0}, {"measurement": "herbicidal rating TRZAWR", "setting": "[4]; rate 0.0158 kg/ha", "result": 2.5}, {"measurement": "herbicidal rating TRZAWR", "setting": "[4]; rate 0.0315 kg/ha", "result": 3.0}, {"measurement": "herbicidal rating TRZAWR", "setting": "[4]; rate 0.0630 kg/ha", "result": 4.5}, {"measurement": "CASOB rating", "setting": "CASOB (Sicklepod); 0.0313 kg/ha", "result": 1.5}, {"measurement": "CASOB rating", "setting": "CASOB (Sicklepod); 0.0625 kg/ha", "result": 2.0}, {"measurement": "CASOB rating", "setting": "CASOB (Sicklepod); 0.1250 kg/ha", "result": 4.0}, {"measurement": "CASOB rating", "setting": "CASOB (Sicklepod); 0.2500 kg/ha", "result": 6.0}, {"measurement": "Preemergence herbicidal rating CASOB", "setting": "CASOB (Sicklepod); rate 0.0156 kg/ha", "result": 0.0}, {"measurement": "CHEAL rating", "setting": "[5]; 0.0313 kg/ha", "result": 9.0}, {"measurement": "CHEAL rating", "setting": "[5]; 0.0625 kg/ha", "result": 9.0}, {"measurement": "CHEAL rating", "setting": "[5]; 0.1250 kg/ha", "result": 9.0}, {"measurement": "CHEAL rating", "setting": "[5]; 0.2500 kg/ha", "result": 9.0}, {"measurement": "Preemergence herbicidal rating CHEAL", "setting": "[5]; rate 0.0156 kg/ha", "result": 8.0}, {"measurement": "GALAP rating", "setting": "GALAP (Galium); 0.0313 kg/ha", "result": 2.0}, {"measurement": "GALAP rating", "setting": "GALAP (Galium); 0.0625 kg/ha", "result": 3.0}, {"measurement": "GALAP rating", "setting": "GALAP (Galium); 0.1250 kg/ha", "result": 6.0}, {"measurement": "GALAP rating", "setting": "GALAP (Galium); 0.2500 kg/ha", "result": 7.0}, {"measurement": "Preemergence herbicidal rating GALAP", "setting": "GALAP (Galium); rate 0.0156 kg/ha", "result": 1.0}, {"measurement": "IPOHE rating", "setting": "[6]; 0.0313 kg/ha", "result": 2.5}, {"measurement": "IPOHE rating", "setting": "[6]; 0.0625 kg/ha", "result": 7.0}, {"measurement": "IPOHE rating", "setting": "[6]; 0.1250 kg/ha", "result": 7.5}, {"measurement": "IPOHE rating", "setting": "[6]; 0.2500 kg/ha", "result": 9.0}, {"measurement": "Preemergence herbicidal rating IPOHE", "setting": "[6]; rate 0.0156 kg/ha", "result": 2.0}, {"measurement": "ECHCG rating", "setting": "ECHCG (Barnyardgrass) [7]; 0.0313 kg/ha", "result": 1.0}, {"measurement": "ECHCG rating", "setting": "ECHCG (Barnyardgrass) [7]; 0.0625 kg/ha", "result": 1.5}, {"measurement": "ECHCG rating", "setting": "ECHCG (Barnyardgrass) [7]; 0.1250 kg/ha", "result": 2.0}, {"measurement": "ECHCG rating", "setting": "ECHCG (Barnyardgrass) [7]; 0.2500 kg/ha", "result": 7.0}, {"measurement": "Preemergence herbicidal rating ECHCG", "setting": "ECHCG (Barnyardgrass) [7]; rate 0.0156 kg/ha", "result": 0.0}, {"measurement": "ZEAMX rating", "setting": "ZEAMX (Corn, Field); 0.0313 kg/ha", "result": 1.0}, {"measurement": "ZEAMX rating", "setting": "ZEAMX (Corn, Field); 0.0625 kg/ha", "result": 2.5}, {"measurement": "ZEAMX rating", "setting": "ZEAMX (Corn, Field); 0.1250 kg/ha", "result": 4.0}, {"measurement": "ZEAMX rating", "setting": "ZEAMX (Corn, Field); 0.2500 kg/ha", "result": 5.0}, {"measurement": "Preemergence herbicidal rating ZEAMX", "setting": "ZEAMX (Corn, Field); rate 0.0156 kg/ha", "result": 0.0}]}]}
